system: A375 melanoma cells (B-Raf V600E mutation); assay: A375 (A375_P-ERK) cell activity / cell growth inhibition assay; format: cell-based, human; details: Homo sapiens, A-375; A375 cells (text: A375_P-ERK)

Row | SMILES | IC50 [µM]
1 | CN1CCN(c2cc(-c3cnc4[nH]cc(C(=O)c5c(F)ccc(NS(=O)(=O)N6CCCC6)c5F)c4c3)ccn2)CC1 [P-0285, N-[2,4-difluoro-3-[5-[2-(4-methylpiperazin-1-yl)-4-pyridyl]-1H-pyrrolo[2,3-b]pyridine-3-carbonyl]phenyl]pyrrolidine-1-sulfonamide] | < 1
2 | CN(C)S(=O)(=O)Nc1cccc(C(=O)c2c[nH]c3ncc(-c4ccc(C5(C#N)CC5)cc4)cc23)c1F [P-0055, 5-[4-(1-cyanocyclopropyl)phenyl]-3-[3-(dimethylsulfamoylamino)-2-fluoro-benzoyl]-1H-pyrrolo[2,3-b]pyridine] | < 1
3 | O=C(c1cccc(NS(=O)(=O)N2CCCC2)c1F)c1c[nH]c2ncc(-c3ccc(C4(C(=O)O)CC4)cc3)cc12 [P-0243, 1-[4-[3-[2-fluoro-3-(pyrrolidin-1-ylsulfonylamino)benzoyl]-1H-pyrrolo[2,3-b]pyridin-5-yl]phenyl]cyclopropanecarboxylic acid] | > 1
4 | CCN(C)S(=O)(=O)Nc1cccc(C(=O)c2c[nH]c3ncc(-c4ccc(C)nc4)cc23)c1F [P-0033] | < 1
5 | CN1CCN(c2cccc(-c3cnc4[nH]cc(C(=O)c5cccc(NS(=O)(=O)N6CCCC6)c5F)c4c3)n2)CC1 [P-0324, N-[2-fluoro-3-[5-[6-(4-methylpiperazin-1-yl)-2-pyridyl]-1H-pyrrolo[2,3-b]pyridine-3-carbonyl]phenyl]pyrrolidine-1-sulfonamide] | < 1
6 | CC(C)NS(=O)(=O)Nc1cccc(C(=O)c2c[nH]c3ncc(I)cc23)c1F [P-0071, [2-fluoro-3-(isopropylsulfamoylamino)phenyl]-(5-iodo-1H-pyrrolo[2,3-b]pyridin-3-yl)methanone] | < 1
7 | COCCN(C)S(=O)(=O)Nc1cccc(C(=O)c2c[nH]c3ncc(-c4cnc(NC5CC5)nc4)cc23)c1F [P-0081, 5-[2-(cyclopropylamino)pyrimidin-5-yl]-3-[2-fluoro-3-[[2-methoxyethyl(methyl)sulfamoyl]amino]benzoyl]-1H-pyrrolo[2,3-b]pyridine] | < 1
8 | O=C(c1c(F)ccc(NS(=O)(=O)N2CCCC2)c1F)c1c[nH]c2ncc(-c3cc(N4CCOCC4)ncn3)cc12 [P-0318, N-[2,4-difluoro-3-[5-(6-morpholinopyrimidin-4-yl)-1H-pyrrolo[2,3-b]pyridine-3-carbonyl]phenyl]pyrrolidine-1-sulfonamide] | < 1
9 | CC1CCN(S(=O)(=O)Nc2cccc(C(=O)c3c[nH]c4ncc(-c5cnc(C6CC6)nc5)cc34)c2F)C1 (centres unmarked) [P-0247, N-[3-[5-(2-cyclopropylpyrimidin-5-yl)-1H-pyrrolo[2,3-b]pyridine-3-carbonyl]-2-fluoro-phenyl]-3-methyl-pyrrolidine-1-sulfonamide] | < 1
10 | O=C(c1c(F)ccc(NS(=O)(=O)N2CC[C@@H](F)C2)c1F)c1c[nH]c2ncc(-c3cnc(C4CC4)nc3)cc12 [P-0338, (3R)—N-[3-[5-(2-cyclopropylpyrimidin-5-yl)-1H-pyrrolo[2,3-b]pyridine-3-carbonyl]-2,4-difluoro-phenyl]-3-fluoro-pyrrolidine-1-sulfonamide] | < 1
11 | CCC(C)S(=O)(=O)Nc1cccc(C(=O)c2c[nH]c3ncc(-c4cnc(N5CCCC5)nc4)cc23)c1F (centres unmarked) [P-0225, N-[2-fluoro-3-[5-(2-pyrrolidin-1-ylpyrimidin-5-yl)-1H-pyrrolo[2,3-b]pyridine-3-carbonyl]phenyl]butane-2-sulfonamide] | < 1
12 | CN(C)c1ncc(-c2cnc3[nH]cc(C(=O)c4cccc(NS(=O)(=O)N(C)C)c4F)c3c2)cn1 [P-0106, 5-[2-(dimethylamino)pyrimidin-5-yl]-3-[3-(dimethylsulfamoylamino)-2-fluoro-benzoyl]-1H-pyrrolo[2,3-b]pyridine] | < 1
13 | COc1ncc(-c2cnc3[nH]cc(C(=O)c4cccc(NS(=O)(=O)N5CC(F)(F)C5)c4F)c3c2)cn1 [P-0088, 3,3-difluoro-N-[2-fluoro-3-[5-(2-methoxypyrimidin-5-yl)-1H-pyrrolo[2,3-b]pyridine-3-carbonyl]phenyl]azetidine-1-sulfonamide] | < 1
14 | CN(CC1CC1)S(=O)(=O)Nc1cccc(C(=O)c2c[nH]c3ncc(-c4cnc(C5CC5)nc4)cc23)c1F [P-0084, 3-[3-[[cyclopropylmethyl(methyl)sulfamoyl]amino]-2-fluoro-benzoyl]-5-(2-cyclopropylpyrimidin-5-yl)-1H-pyrrolo[2,3-b]pyridine] | < 1
15 | CCN(C)S(=O)(=O)Nc1ccc(F)c(C(=O)c2c[nH]c3ncc(-c4ccc(-c5noc(C)n5)s4)cc23)c1F [P-0310, 3-[5-[3-[3-[[ethyl(methyl)sulfamoyl]amino]-2,6-difluoro-benzoyl]-1H-pyrrolo[2,3-b]pyridin-5-yl]-2-thienyl]-5-methyl-1,2,4-oxadiazole] | < 1
16 | O=C(c1cccc(NS(=O)(=O)N2CCCC2)c1F)c1c[nH]c2ncc(-c3ccc(F)cc3)cc12 [P-0062, N-[2-fluoro-3-[5-(4-fluorophenyl)-1H-pyrrolo[2,3-b]pyridine-3-carbonyl]phenyl]pyrrolidine-1-sulfonamide] | < 1

Row | SMILES | IC50 [µM]
17 | CCN(C)S(=O)(=O)Nc1ccc(F)c(C(=O)c2c[nH]c3ncc(-c4cccc(N5CCOCC5)c4)cc23)c1F [P-0259, 4-[3-[3-[3-[[ethyl(methyl)sulfamoyl]amino]-2,6-difluoro-benzoyl]-1H-pyrrolo[2,3-b]pyridin-5-yl]phenyl]morpholine] | < 1
18 | CCN(C)S(=O)(=O)Nc1ccc(F)c(C(=O)c2c[nH]c3ncc(-c4ccc(C5(O)CC5)cc4)cc23)c1F [P-0314, 3-[3-[[ethyl(methyl)sulfamoyl]amino]-2,6-difluoro-benzoyl]-5-[4-(1-hydroxycyclopropyl)phenyl]-1H-pyrrolo[2,3-b]pyridine] | < 1
19 | COCCN(C)S(=O)(=O)Nc1cccc(C(=O)c2c[nH]c3ncc(-c4cnc(OC)nc4)cc23)c1F [P-0073, 3-[2-fluoro-3-[[2-methoxyethyl(methyl)sulfamoyl]amino]benzoyl]-5-(2-methoxypyrimidin-5-yl)-1H-pyrrolo[2,3-b]pyridine] | < 1
20 | Cc1cnc2[nH]cc(C(=O)c3cccc(NS(=O)(=O)N4CCCC4)c3F)c2c1 [P-0023, N-[2-fluoro-3-(5-methyl-1H-pyrrolo[2,3-b]pyridine-3-carbonyl)phenyl]pyrrolidine-1-sulfonamide] | < 1
21 | O=C(c1cccc(NS(=O)(=O)N2CCCC2)c1F)c1c[nH]c2ncc(-c3ccccc3)cc12 [P-0063, N-[2-fluoro-3-(5-phenyl-1H-pyrrolo[2,3-b]pyridine-3-carbonyl)phenyl]pyrrolidine-1-sulfonamide] | < 1
22 | CCC(C)S(=O)(=O)Nc1cccc(C(=O)c2c[nH]c3ncc(-c4cnc(NC5CC5)nc4)cc23)c1F (centres unmarked) [P-0226, N-[3-[5-[2-(cyclopropylamino)pyrimidin-5-yl]-1H-pyrrolo[2,3-b]pyridine-3-carbonyl]-2-fluoro-phenyl]butane-2-sulfonamide] | < 1
23 | CCN(C)S(=O)(=O)Nc1ccc(F)c(C(=O)c2c[nH]c3ncc(-c4ccc(-c5nnc(NC)s5)cc4)cc23)c1F [P-0305, 2-[4-[3-[3-[[ethyl(methyl)sulfamoyl]amino]-2,6-difluoro-benzoyl]-1H-pyrrolo[2,3-b]pyridin-5-yl]phenyl]-5-(methylamino)-1,3,4-thiadiazole] | < 1
24 | CN(CC1CC1)S(=O)(=O)Nc1cccc(C(=O)c2c[nH]c3ncc(-c4ccc(C5CC5)nc4)cc23)c1F [P-0115, 3-[3-[[cyclopropylmethyl(methyl)sulfamoyl]amino]-2-fluoro-benzoyl]-5-(6-cyclopropyl-3-pyridyl)-1H-pyrrolo[2,3-b]pyridine] | < 1
25 | CCN(C)S(=O)(=O)Nc1cccc(C(=O)c2c[nH]c3ncc(-c4cnc(C)nc4)cc23)c1F [P-0056, 3-[3-[[ethyl(methyl)sulfamoyl]amino]-2-fluoro-benzoyl]-5-(2-methylpyrimidin-5-yl)-1H-pyrrolo[2,3-b]pyridine] | < 1
26 | CCCN(C)S(=O)(=O)Nc1cccc(C(=O)c2c[nH]c3ncc(-c4cnc(OC)nc4)cc23)c1F [P-0040, 3-[2-fluoro-3-[[methyl(propyl)sulfamoyl]amino]benzoyl]-5-(2-methoxypyrimidin-5-yl)-1H-pyrrolo[2,3-b]pyridine] | < 1
27 | O=C(c1cccc(NS(=O)(=O)N2CCCC2)c1F)c1c[nH]c2ncc(-c3cccnc3)cc12 [P-0043, N-[2-fluoro-3-[5-(3-pyridyl)-1H-pyrrolo[2,3-b]pyridine-3-carbonyl]phenyl]pyrrolidine-1-sulfonamide] | < 1
28 | Cc1ccc(-c2cnc3[nH]cc(C(=O)c4cccc(NS(=O)(=O)N5CCCC5)c4F)c3c2)cn1 [P-0045, N-[2-fluoro-3-[5-(6-methyl-3-pyridyl)-1H-pyrrolo[2,3-b]pyridine-3-carbonyl]phenyl]pyrrolidine-1-sulfonamide] | < 1
29 | CCN(C)S(=O)(=O)Nc1ccc(F)c(C(=O)c2c[nH]c3ncc(-c4cnc(N5CCN(C)CC5)nc4)cc23)c1F [P-0263, 3-[3-[[ethyl(methyl)sulfamoyl]amino]-2,6-difluoro-benzoyl]-5-[2-(4-methylpiperazin-1-yl)pyrimidin-5-yl]-1H-pyrrolo[2,3-b]pyridine] | < 1
30 | C[C@@H]1CCN(S(=O)(=O)Nc2cccc(C(=O)c3c[nH]c4ncc(-c5cnc(C6CC6)nc5)cc34)c2F)C1 [P-0271, (3R)—N-[3-[5-(2-cyclopropylpyrimidin-5-yl)-1H-pyrrolo[2,3-b]pyridine-3-carbonyl]-2-fluoro-phenyl]-3-methyl-pyrrolidine-1-sulfonamide] | < 1
31 | CN(CC(F)(F)F)S(=O)(=O)Nc1ccc(F)c(C(=O)c2c[nH]c3ncc(-c4cnc(C5CC5)nc4)cc23)c1F [P-0340, 5-(2-cyclopropylpyrimidin-5-yl)-3-[2,6-difluoro-3-[[methyl(2,2,2-trifluoroethyl)sulfamoyl]amino]benzoyl]-1H-pyrrolo[2,3-b]pyridine] | < 1
32 | COCCN(C)S(=O)(=O)Nc1cccc(C(=O)c2c[nH]c3ncc(-c4cnc(C5CC5)nc4)cc23)c1F [P-0085, 5-(2-cyclopropylpyrimidin-5-yl)-3-[2-fluoro-3-[[2-methoxyethyl(methyl)sulfamoyl]amino]benzoyl]-1H-pyrrolo[2,3-b]pyridine] | < 1
